Broadly, the IC50 is the concentration at which inhibition is half-maximal. What is called inhibition is the change of the read-out against control, counted positive when it falls. Low readings indicate a weak effect, high ones a strong effect. What is called hepatocyte CLint is the rate of metabolic loss divided by the concentration. Lower therefore signals greater metabolic stability.

From patent publication US12187716B2, “TYK2 kinase inhibitors” (SAREUM LIMITED, priority 2018, dated 2025) come the findings set out here.

Read-outs that look alike come from different tables or passages of the source.

For data set [1], the target named is T1, CYP2C8 (Homo sapiens, UniProt P10632).
T1 construct: from tissue; host or cells: pooled human liver microsomes
T1 sequence (P10632 1-490): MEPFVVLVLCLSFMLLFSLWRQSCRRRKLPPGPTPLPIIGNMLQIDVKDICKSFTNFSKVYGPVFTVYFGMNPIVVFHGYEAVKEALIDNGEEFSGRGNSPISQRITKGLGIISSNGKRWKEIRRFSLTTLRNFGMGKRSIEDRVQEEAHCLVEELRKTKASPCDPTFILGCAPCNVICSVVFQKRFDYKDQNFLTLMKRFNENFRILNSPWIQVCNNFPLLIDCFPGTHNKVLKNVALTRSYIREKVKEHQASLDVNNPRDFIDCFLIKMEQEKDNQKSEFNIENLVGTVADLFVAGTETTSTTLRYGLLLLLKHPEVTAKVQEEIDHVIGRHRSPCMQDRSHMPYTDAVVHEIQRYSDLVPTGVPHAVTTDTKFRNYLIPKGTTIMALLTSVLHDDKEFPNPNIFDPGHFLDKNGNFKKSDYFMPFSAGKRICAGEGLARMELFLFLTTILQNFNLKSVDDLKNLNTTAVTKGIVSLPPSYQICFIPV
Briefly: Cytochrome P450 inhibition assay, CYP2C8. The data set is classed as in vitro ADME. As to conditions: pooled human liver microsomes, probe Amodiaquine. The procedure:
(§1) The susceptibility of Compounds (2) and (3) to potential drug-drug interactions was tested by assaying their abilities to inhibit various cytochrome P450 isoforms. Prior art Compound B (see Example 3 above) was also tested as a comparative example. Test compounds, prepared and serially diluted in DMSO, were incubated at six concentrations (1% DMSO final) with pooled human liver microsomes in the presence of probe substrate for each isoform, and their effects on the metabolism of probe substrates determined. Incubations (in 96-well plates) were carried out at 37° C. in 0.1 M Tris buffer, pH 7.4, with reactions initiated by the addition of cofactor, NADPH (1 mM final concentration). At the specified times, reactions were terminated with acetonitrile containing an analytical internal standard, samples were centrifuged and the supernatant fractions were analysed for probe substrate metabolites by mass spectrometry (LC-MS/MS). The instrument responses were normalised to internal standard and compared to the appropriate solvent controls to determine the amount of metabolite formed from the probe substrates relative to these “uninhibited” controls. […] [table]

Data set [2] concerns the target T2, CYP2C19 (Homo sapiens, UniProt P33261).
T2 construct: from tissue; host or cells: pooled human liver microsomes
Briefly: Cytochrome P450 inhibition assay, CYP2C19. The data set is classed as in vitro ADME. As to conditions: pooled human liver microsomes, probe S-(+)-Mephenytoin. The procedure: as §1
(In general: Liver microsomes are a subcellular fraction often used to study metabolism.)

The target in data set [3] is T3, CYP2C9 (Homo sapiens, UniProt P11712).
T3 construct: from tissue; host or cells: pooled human liver microsomes
Briefly: Cytochrome P450 inhibition assay, CYP2C9. The data set is classed as in vitro ADME. As to conditions: pooled human liver microsomes, probe Diclofenac. The procedure:
as §1

The target in data set [4] is T4, CYP2D6 (Homo sapiens, UniProt P10635).
T4 construct: from tissue; host or cells: pooled human liver microsomes
Briefly: Cytochrome P450 inhibition assay, CYP2D6. The data set is classed as in vitro ADME. As to conditions: pooled human liver microsomes, probe Dextromethorphan. The procedure: as §1

For data set [5], the target named is T5, hERG potassium channel (Homo sapiens, UniProt Q12809).
T5 construct: expressed in transfected cells; host or cells: hERG-HEK stably transfected cell line
Briefly: hERG channel inhibition assay (hERG-HEK cells, Sophion Qube). As to conditions: for IC50: hERG-HEK cells, tail current, room temperature; for inhibition at 30 uM: human, hERG-HEK stably transfected cell line, Max Conc. 30 uM. The data set is classed as cell-based. The procedure: The potential for compounds to inhibit the hERG potassium channel was determined using a hERG-HEK stably transfected cell line on the Sophion Qube automated electrophysiology platform. The assay was performed at room temperature and recordings of the hERG tail current from individual cells was made using single-hole QChips.
The potency (IC50) of test compounds to inhibit the hERG channel was determined from a concentration-response curve generated from 8 test compound concentrations with up to 4 replicates per concentration.
The compound concentration was added to the test well twice to ensure complete exchange of the external buffer with the test compound. In total, compound was applied to the well for >7 minutes.
On the technique in general: hERG is a cardiac potassium channel; its block is linked to QT prolongation.

The nature of data set [6]: Hepatocyte stability assay, mouse. It counts as in vitro ADME. Conditions: male, CD-1, pooled hepatocytes, 37° C. The procedure:
(§2) Test and control compounds were incubated with hepatocytes at 37° C. Aliquots were removed at 6 timepoints over a one hour period. Samples were centrifuged and the supernatant fractions analysed for parent compound by mass spectrometry (LC-MS/MS).
(§3) The amount of compound remaining (expressed as %) was determined from the MS response in each sample relative to that in the T=0 samples, and used to determine the half-life and intrinsic clearance of the compound.

A short description of data set [7]: Hepatocyte stability assay, rat. The data set is classed as in vitro ADME. Conditions: male, Sprague-Dawley, pooled hepatocytes, 37° C. The procedure:
as §2, §3

Data set [8] is described as follows: Hepatocyte stability assay, human. It counts as in vitro ADME, human (mixed gender). Conditions: both sexes, pooled hepatocytes, 37° C. The procedure: as §2, §3
Data set [9] deals with STAT3 phosphorylation in Th17 cells. Briefly: Inhibition of STAT3 phosphorylation in Th17 cells derived from human peripheral blood CD4CD45RO+ cells. It counts as cell-based. The procedure:
Fresh human Peripheral blood CD4CD45RO+ cells were purchased commercially (Generon, UK); 3 separate vials from 3 different volunteers for experimental replicates. Cells were grown in T-cell medium (Thermo Fisher) containing 10 ng/ml recombinant human IL-1B (R&D Systems), IL-23 (R&D Systems), TGF-B1 (R&D Systems) and 50 ng/ml IL-6 (R&D Systems) together with anti-CD3/CD28 magnetic Dynabeads (Thermo Fisher). These were grown for 11 days to induce expansion of Th17 cells. Prior to plating for assays cells were grown overnight in T-cell medium supplemented with human serum (1%) overnight. Media was removed and replaced with unsupplemented RPMI for 4 h prior to assay.
To measure pSTAT3 levels, 200,000 cells were plated into a 96 well plate and preincubated with compounds for 30 minutes followed by stimulation with recombinant IL-23 at 12.5 ng/ml for 15 minutes then lysed using cell lysis buffer. pSTAT3 levels in the lysates were measured using a commercially available ELISA kit (Thermo Fisher; 85-86102-11).
ELISAs were carried out according to manufacturers instructions and absorbance read using a microplate reader (Thermo Fisher; Varioskan). Data was normalised to the response in untreated samples using the formula: % of control=((Stimulated sample Conc.−unstimulated sample Conc.)×100)/(Control stimulated Conc.−control unstimulated Conc.)
Graphpad Prism 8.1.0 was used to calculate I050 values using a Nonlinear 4 parameter logistic regression model (4PL).

The target in data set [10] is TYK2 (Homo sapiens, UniProt P29597). Briefly: TYK2 kinase inhibition assay (33P-ATP filter binding, Reaction Biology).
Data set [11] has as its target JAK1 (Homo sapiens, UniProt P23458). Briefly: JAK1 kinase inhibition assay (33P-ATP filter binding, Reaction Biology).
The target of data set [12] is JAK3 (Homo sapiens, UniProt P52333). Briefly: JAK3 kinase inhibition assay (33P-ATP filter binding, Reaction Biology).
Where [13] appears, read: 0.25 h, IL-23 12.5 ng/ml, 15 minutes, Donor 1, read-out: Inhibition of STAT3 phosphorylation IC50, Donor 1.
Setting [14] is: 0.25 h, IL-23 12.5 ng/ml, 15 minutes, Donor 2, read-out: Inhibition of STAT3 phosphorylation IC50, Donor 2.
Where [15] appears, read: 0.25 h, IL-23 12.5 ng/ml, 15 minutes, Donor 3, read-out: Inhibition of STAT3 phosphorylation IC50, Donor 3.
Setting [16] is: average of 3 donors, read-out: Inhibition of STAT3 phosphorylation IC50, Average.

Chain of JAK3 (P52333 781-1124): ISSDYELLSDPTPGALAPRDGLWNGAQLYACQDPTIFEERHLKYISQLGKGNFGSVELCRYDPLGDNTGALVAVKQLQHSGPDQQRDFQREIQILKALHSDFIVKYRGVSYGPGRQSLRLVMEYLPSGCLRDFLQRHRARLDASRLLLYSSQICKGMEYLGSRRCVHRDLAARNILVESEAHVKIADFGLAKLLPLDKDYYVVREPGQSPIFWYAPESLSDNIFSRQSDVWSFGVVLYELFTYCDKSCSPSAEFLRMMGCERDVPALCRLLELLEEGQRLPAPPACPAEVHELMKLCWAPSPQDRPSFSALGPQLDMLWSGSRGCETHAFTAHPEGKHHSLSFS
T5 sequence (Q12809 whole entry): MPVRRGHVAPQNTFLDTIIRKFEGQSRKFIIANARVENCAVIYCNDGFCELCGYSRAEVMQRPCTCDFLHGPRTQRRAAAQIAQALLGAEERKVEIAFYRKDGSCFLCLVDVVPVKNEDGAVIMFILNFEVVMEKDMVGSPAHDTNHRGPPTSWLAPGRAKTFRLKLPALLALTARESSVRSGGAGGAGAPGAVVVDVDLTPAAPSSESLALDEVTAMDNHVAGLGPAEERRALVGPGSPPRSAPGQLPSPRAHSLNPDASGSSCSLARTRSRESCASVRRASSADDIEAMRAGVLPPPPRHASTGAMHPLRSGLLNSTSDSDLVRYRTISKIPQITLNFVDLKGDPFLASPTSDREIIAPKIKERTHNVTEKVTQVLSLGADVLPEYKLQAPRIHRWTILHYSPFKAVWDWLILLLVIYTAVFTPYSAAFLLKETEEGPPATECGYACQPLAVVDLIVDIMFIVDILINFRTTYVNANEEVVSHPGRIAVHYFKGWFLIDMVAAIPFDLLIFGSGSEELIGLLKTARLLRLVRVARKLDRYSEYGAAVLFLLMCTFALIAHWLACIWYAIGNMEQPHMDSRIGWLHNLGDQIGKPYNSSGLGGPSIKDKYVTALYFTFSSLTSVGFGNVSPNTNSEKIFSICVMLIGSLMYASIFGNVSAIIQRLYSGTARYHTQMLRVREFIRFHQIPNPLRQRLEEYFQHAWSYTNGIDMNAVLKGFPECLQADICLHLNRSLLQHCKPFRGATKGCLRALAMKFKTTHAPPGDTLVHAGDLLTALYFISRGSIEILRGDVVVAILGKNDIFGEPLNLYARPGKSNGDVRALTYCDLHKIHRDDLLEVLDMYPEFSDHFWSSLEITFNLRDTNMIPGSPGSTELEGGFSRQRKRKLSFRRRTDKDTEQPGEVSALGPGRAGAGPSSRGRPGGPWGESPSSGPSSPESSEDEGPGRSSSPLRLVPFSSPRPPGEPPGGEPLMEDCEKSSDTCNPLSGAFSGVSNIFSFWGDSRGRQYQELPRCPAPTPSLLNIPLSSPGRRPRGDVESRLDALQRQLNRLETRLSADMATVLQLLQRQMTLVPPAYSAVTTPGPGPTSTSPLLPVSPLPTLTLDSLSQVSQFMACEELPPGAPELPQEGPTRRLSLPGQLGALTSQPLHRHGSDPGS
Chain of JAK1 (P23458 866-1154): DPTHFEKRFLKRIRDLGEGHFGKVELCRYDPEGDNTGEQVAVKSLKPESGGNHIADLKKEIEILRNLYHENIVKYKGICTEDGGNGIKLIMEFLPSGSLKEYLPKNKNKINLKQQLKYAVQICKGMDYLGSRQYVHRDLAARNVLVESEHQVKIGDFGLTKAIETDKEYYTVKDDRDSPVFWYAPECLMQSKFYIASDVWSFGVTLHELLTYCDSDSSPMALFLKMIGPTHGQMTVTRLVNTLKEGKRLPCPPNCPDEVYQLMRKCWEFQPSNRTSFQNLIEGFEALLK
Chain of TYK2 (P29597 833-1187): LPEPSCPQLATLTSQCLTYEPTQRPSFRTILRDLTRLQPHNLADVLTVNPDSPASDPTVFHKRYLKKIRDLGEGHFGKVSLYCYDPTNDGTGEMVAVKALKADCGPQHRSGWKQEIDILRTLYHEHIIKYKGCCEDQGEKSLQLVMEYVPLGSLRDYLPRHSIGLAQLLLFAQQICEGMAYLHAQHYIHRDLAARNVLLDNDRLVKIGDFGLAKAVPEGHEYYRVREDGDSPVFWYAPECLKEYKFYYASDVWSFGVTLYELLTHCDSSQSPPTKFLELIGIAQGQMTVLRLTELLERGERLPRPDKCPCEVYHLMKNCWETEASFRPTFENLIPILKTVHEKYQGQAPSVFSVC
T4 sequence (P10635 whole entry): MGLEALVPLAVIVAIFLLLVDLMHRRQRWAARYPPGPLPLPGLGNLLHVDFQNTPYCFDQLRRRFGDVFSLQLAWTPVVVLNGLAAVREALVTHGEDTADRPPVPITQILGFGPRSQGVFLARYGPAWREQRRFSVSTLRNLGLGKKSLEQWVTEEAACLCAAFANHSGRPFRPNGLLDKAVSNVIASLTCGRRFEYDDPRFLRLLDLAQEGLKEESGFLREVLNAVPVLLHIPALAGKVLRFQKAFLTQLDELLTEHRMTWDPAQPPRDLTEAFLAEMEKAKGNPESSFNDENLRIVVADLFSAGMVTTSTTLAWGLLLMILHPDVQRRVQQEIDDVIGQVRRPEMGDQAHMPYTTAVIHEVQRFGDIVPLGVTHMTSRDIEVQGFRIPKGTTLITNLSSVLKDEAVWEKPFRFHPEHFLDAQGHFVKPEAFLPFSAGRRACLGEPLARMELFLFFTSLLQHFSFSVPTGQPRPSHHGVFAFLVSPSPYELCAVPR
T3 sequence (P11712 whole entry): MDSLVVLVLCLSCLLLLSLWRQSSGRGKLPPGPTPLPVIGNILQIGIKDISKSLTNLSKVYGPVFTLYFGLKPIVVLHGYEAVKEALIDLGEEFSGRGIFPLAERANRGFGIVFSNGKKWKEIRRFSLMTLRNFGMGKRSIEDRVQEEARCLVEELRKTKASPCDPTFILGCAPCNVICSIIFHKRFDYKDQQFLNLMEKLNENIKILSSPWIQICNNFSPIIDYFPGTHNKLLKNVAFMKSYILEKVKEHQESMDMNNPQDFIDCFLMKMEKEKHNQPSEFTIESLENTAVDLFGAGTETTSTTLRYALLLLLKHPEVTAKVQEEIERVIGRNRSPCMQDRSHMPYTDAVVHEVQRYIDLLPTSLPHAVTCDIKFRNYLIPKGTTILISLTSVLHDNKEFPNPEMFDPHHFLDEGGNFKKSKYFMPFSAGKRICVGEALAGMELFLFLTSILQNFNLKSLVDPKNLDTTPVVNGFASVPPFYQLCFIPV
T2 sequence (P33261 whole entry): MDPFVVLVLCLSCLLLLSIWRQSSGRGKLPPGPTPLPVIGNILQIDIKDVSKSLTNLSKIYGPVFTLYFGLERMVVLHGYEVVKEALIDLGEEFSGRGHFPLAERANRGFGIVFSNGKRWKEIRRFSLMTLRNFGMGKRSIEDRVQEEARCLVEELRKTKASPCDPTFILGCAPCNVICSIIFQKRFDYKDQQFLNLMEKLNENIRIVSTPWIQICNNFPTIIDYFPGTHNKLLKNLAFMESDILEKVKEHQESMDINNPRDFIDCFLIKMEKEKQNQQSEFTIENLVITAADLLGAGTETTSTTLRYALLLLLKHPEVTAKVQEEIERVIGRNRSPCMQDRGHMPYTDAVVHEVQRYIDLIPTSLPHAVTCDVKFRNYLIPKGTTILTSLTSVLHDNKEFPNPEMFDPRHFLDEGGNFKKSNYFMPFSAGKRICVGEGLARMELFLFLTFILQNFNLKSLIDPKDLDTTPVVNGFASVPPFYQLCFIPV

Regarding `NC(=O)c1nc(-c2c(Cl)cccc2Cl)oc1Nc1ccc(C(=O)N2CCOCC2)cc1` [Comparative Compound B, 2-(2,6-dichloro-phenyl)-5-[4-(morpholine-4-carbonyl)-phenylamino]-oxazole-4-carboxylic acid amide, reference compound], the IC50 in data set [1] is over 8.2 µM; in data set [2] it was over 30 µM; in [3] it was 4.4 µM; in data set [4], over 30 µM; in [5], about 30 µM; in [9] (setting [13]) it was 0.111 µM. In addition, the IC50 is 0.017 µM in data set [9] (setting [14]); 0.054 µM in data set [9] (setting [15]); 0.061 µM in data set [9] (setting [16]); 0.0051 µM in data set [10]; 0.026 µM in [11]; 0.271 µM in data set [12]. Moreover, the inhibition at 30 uM in data set [5] worked out at 50.5%. The intrinsic metabolic clearance (hepatocyte CLint) was found to be 40.5 µL/min/1e6 cells in [6], 104 µL/min/1e6 cells in data set [7] and 9 µL/min/1e6 cells in data set [8].
As to `NC(=O)c1nc(-c2c(Cl)cccc2Cl)oc1Nc1ccc(C(=O)N2CCS(=O)(=O)CC2)c(F)c1` [Compound (3)], the IC50 in data set [1] was over 30 µM; in data set [2] it was 29 µM; in data set [3], over 30 µM; in data set [4], over 30 µM; in data set [5], over 30 µM; in data set [9] (setting [13]), 0.157 µM. Also, the IC50 in data set [9] (setting [14]) was 0.029 µM; in data set [9] (setting [15]) it was 0.091 µM; in data set [9] (setting [16]), 0.092 µM; in data set [10] it was 0.0047 µM; in data set [11], 0.051 µM; in [12], 0.772 µM. Also, in [5], the inhibition at 30 uM turned out to be 31.5%. Besides, the hepatocyte CLint in data set [6] is 28 µL/min/1e6 cells; in data set [7], 53.8 µL/min/1e6 cells; in data set [8], 4.2 µL/min/1e6 cells. Besides, the values for the half-life in data set [6] (read-out: Mouse T1/2), in [7] (read-out: Rat T1/2) and in data set [8] (read-out: Human T1/2) were 39.2 min, 28.5 min and 335 min, respectively. For the same compound, the “Selectivity v TYK2: TYK2” value in [10] (ratio of IC50 to TYK2 IC50) came out at 1. Besides, the “Selectivity v TYK2: JAK1” value in [11] (ratio of JAK1 IC50 to TYK2 IC50) amounted to 10.9. For the same compound, in data set [12] (biochemical assays), the “selectivity for TYK2 compared to JAK3” value was about 164 fold. For the same compound, the “Selectivity v TYK2: JAK3” value in data set [12] (ratio of JAK3 IC50 to TYK2 IC50) came out at 164.3.
On to `NC(=O)c1nc(-c2c(Cl)cccc2Cl)oc1Nc1ccc(C(=O)N2CCS(=O)(=O)CC2)cc1` [Compound (2)], for which the IC50 in [1] is over 30 µM; in data set [2] it was over 30 µM; in [3], 26 µM; in data set [4], over 30 µM; in data set [5] it was over 30 µM; in [9] (setting [13]), 0.069 µM. In addition, the IC50 in data set [9] (setting [14]) worked out at 0.029 µM; in data set [9] (setting [15]), 0.055 µM; in [9] (setting [16]) it was 0.051 µM; in data set [10], 0.0019 µM; in [11], 0.02 µM; in data set [12], 0.212 µM. Also, in [5], the inhibition at 30 uM is 38.6%. Besides, the intrinsic clearance (hepatocyte CLint) in [6] was found to be 16.8 µL/min/1e6 cells; in data set [7] it was 50 µL/min/1e6 cells.
